System: PD-L1 expression in 4T1 cells
Experiment: Immunoblot analysis of PD-L1 expression
Type: cell-based, mouse
Conditions: 4T1 cells cultured 48 h after exposure at 42 ℃ for 10 min
Description: fluctuations were continuously recorded using an infrared thermal imaging camera (FLIR E50, USA).
Cell lysis and immunoblotting
Cells were washed with PBS and lysed using RIPA buffer supplemented with protease inhibitors. The lysates were subjected to SDS-PAGE (12% or 10% Bis-Tris gel) and subsequently transferred onto a nitrocellulose membrane. The membrane was blocked with TBS-T containing 5% non-fat dry milk, followed by overnight incubation with the primary antibody at 4 °C. After triplicate washing with TBS-T, the membrane was incubated with the HRP-conjugated secondary antibody for 1 h at room temperature and developed using ECL detection reagents.
The TRIzol reagent was used for RNA extraction according to the manufacturer's instructions. Total RNA was reverse -transcribed into cDNA using an iScript cDNA synthesis kit. Quantitative analysis of the target genes was performed using the Universal SYBR Green Supermix qPCR kit. GAPDH was used as the reference gene for relative quantification normalization, with details of the primer sequences provided in Supplementary Table 1. […]
The lysis buffer was then neutralized by adding an equal volume of RPMI 1640 medium, followed by centrifugation at 500 × g for 3 min. […] After incubation, the cells were washed with PBS to remove T cells and debris, followed by crystal violet staining to quantify the live cancer cells. […]

GFTATPPPDSPQEP/PEIF [PTPRF, fluorinated PTPR: PTPR combined with fluorinated polyethyleneimine PEIF]
concentration that effectively inhibited PD-L1 expression: 10 µM

— publication PMC12591182, “PD‐L1‐Targeting Biomimetic Photoresponsive Thermosensitive Liposomes for Triple‐Negative Breast Cancer” (Advanced Science, 2025)
